Measured values: US20250352524A1, “PREVENTION OF METASTATIC OUTGROWTH USING TEAD INHIBITORS” (Georgetown University, priority 2024, published 2025)

Tests used:
Jurkat cells = test: Real Time Cell Analysis, cytotoxicity of Jurkat cells towards 4T1 cells; assay type: cell-based, human; settings: 1 μM VT107 for 24 hours
Experimental: The hippo pathway has been implicated in T-cell development and function (Du et al., 2014; Ueda et al., 2012). For example, YAP expression is essential for tumor immune suppression by Treg cells that attenuates CD8 T-cell immunity (Geng et al., 2017; Ni et al., 2018; Lebid et al., 2020). […] To investigate whether VT107 directly affected T-cells, T-cells treated with VT107 were co-cultured with 4T1 cells in 2D for 72 hours. […] To further confirm T-cell activation upon TEAD activity reduction, we used Jurkat cells, a CD4 positive human lymphoma cell line (Schneider et al., 1977). […] However, here we show the specific effect of TEAD reduction on granzyme gene expression and degranulation that result in the killing of cancer cells.
Cell analysis was done using E-plates from xCELLigence, (Agilent, #5469830001) according to the manufacturer's protocol. For cell cytotoxicity, cancer cells (10,000-25,000 cells per well) were seeded and allowed to attach for 1-2 hours prior to the addition of immune cells and/or drug treatments. For cell proliferation, cancer cells were seeded at 5,000-10,000 cells per well with incremental doses of drug treatments or DMSO as a vehicle control. Cell index was measured by changes in electric impedance at 15 min intervals. TEAD inhibitors were obtained from Vivace therapeutics. […]

4T1 cancer cells = test: Real Time Cell Analysis, cytotoxicity of T-cells +/- macrophages towards 4T1 cells; assay type: cell-based, mouse
Source text: To investigate whether the effect of iTEAD treatment on macrophages can enhance their crosstalk with T-cells in the lung microenvironment, peritoneal macrophages+/−iTEAD were first isolated and characterized as a model of resident macrophages for ex vivo experiments (FIG. 14, Panel A). It was observed that treatment with VT107 decreased gene expression of M2-like and fibrosis regulators, Aldh1a1 and Cc117 (Chen et al., 2020), as well as TEAD4 and its downstream target gene Ankrd1. […] The iTEAD pretreated peritoneal macrophages and untreated T-cells isolated from the spleen of tumor naïve mice (FIG. 14, Panel A) were then mixed for 5 hours before collecting the conditioned media for analysis. […] Next, these immune cell mixes were added to 4T1 spheres that were embedded into matrix. […] This effect was reversed by an IL12 neutralizing antibody. No change in cleaved caspase-3 in 4T1 cells in the presence of VT107-treated T-cells or macrophages alone, was detected at 24 hours (FIG. 14, Panels C and D). 4T1 cells were then plated and allowed to attach on electrode-coated arrays to monitor cancer cell viability before the addition of macrophages+/−iTEAD and T-cells. […]
(§1) Cell analysis was done using E-plates from xCELLigence, (Agilent, #5469830001) according to the manufacturer's protocol. […] Cell index was measured by changes in electric impedance at 15 min intervals. […]

DCIS cells = test: Real Time Cell Analysis, proliferation of DCIS cells; assay type: cell-based, human; settings: VT107 at varying concentrations, cell index
Experimental: To further examine the effect of TEAD inhibition on the myeloid compartment of the lung, a human breast cancer cell line MCFDCIS (DCIS) that metastasizes to the lungs when a small population of cells (DCISA4) expresses an isoform of the transcription coactivator amplified in breast cancer 1 (Sharif et al., 2021), was used. DCIS:DCISA4 cells were injected into the mammary fat pad of NOD/SCID mice. Mice were treated daily with VT107. Tumors were surgically removed at week 4 and lungs were monitored for metastases for another 4 weeks without receiving additional treatment (FIG. 13, Panel B). Mouse body weights were measured weekly throughout the course of treatment (FIG. 13, Panel C). […] All mice in the vehicle treated group developed lung metastases as previously reported (Sharif et al., 2021). […] RNA was extracted from lung tissues to further examine the host stroma affected by VT107. RNA sequencing reads from the lungs were aligned to the mouse transcriptome to shed light on the host tissue changes in response to treatment in the presence of seeded cancer cells. […]
as §1

[1] = test system: peritoneal macrophages and T-cells; test: Cytokine array, pretreated peritoneal macrophages mixed with T-cells; assay type: cell-based, mouse
Source text: To investigate whether the effect of iTEAD treatment on macrophages can enhance their crosstalk with T-cells in the lung microenvironment, peritoneal macrophages+/−iTEAD were first isolated and characterized as a model of resident macrophages for ex vivo experiments (FIG. 14, Panel A). It was observed that treatment with VT107 decreased gene expression of M2-like and fibrosis regulators, Aldh1a1 and Cc117 (Chen et al., 2020), as well as TEAD4 and its downstream target gene Ankrd1. […] The iTEAD pretreated peritoneal macrophages and untreated T-cells isolated from the spleen of tumor naïve mice (FIG. 14, Panel A) were then mixed for 5 hours before collecting the conditioned media for analysis. […] Next, these immune cell mixes were added to 4T1 spheres that were embedded into matrix. […] This effect was reversed by an IL12 neutralizing antibody. No change in cleaved caspase-3 in 4T1 cells in the presence of VT107-treated T-cells or macrophages alone, was detected at 24 hours (FIG. 14, Panels C and D). 4T1 cells were then plated and allowed to attach on electrode-coated arrays to monitor cancer cell viability before the addition of macrophages+/−iTEAD and T-cells. […] This reversal of T-cell cytotoxicity by IL12 antibodies was not observed in VT107-treated T-cells in the absence of macrophages (FIG. 15, Panel E) indicating a critical role for IL12 in the crosstalk between macrophages and T-cells.
Cells were grown in their recommended cell culture media and treated with […] VT107 for 24 or 72 hours. Conditioned media was collected and passed through a 0.2 micron PES filter then analyzed on a RayBio® Mouse Cytokine Array (#AAM-TCR-1) according to the manufacture's protocol. The array includes two spots for each cytokine. The luminescence signal was normalized to the positive control on each membrane, then to the vehicle treatment signal of each cytokine.

[2] = test system: DCIS and DCIS-Δ4 mixed 3D spheres; test: Invasion of DCIS and DCIS-Δ4 mixed 3D spheres in collagen:matrigel mix; assay type: cell-based, human
Experimental: To determine iTEAD effect on lung immune microenvironment at steady state, naïve C57/BL6 mice were treated with iTEAD. […] In the absence of cancer cells in these naïve mice, no change in CD8+ T-cells was observed between treatment groups. […] On the cancer cell front, TEAD inhibition had no effect on proliferation yet reduced migration and 3D spheroid collective invasion of breast cancer cells in vitro.

[3] = macrophages pretreated 24 hrs with 1 μM VT107, mixed with untreated T-cells 5 hours
[4] = treated overnight with 1 μM VT107

VT107
Jurkat cytotoxicity towards co-cultured 4T1 cells (Jurkat cells): enhanced cytotoxicity | cytotoxicity of T-cells alone (4T1 cancer cells; extended VT107 treatment): slight increase | T-cells' cytotoxicity towards 4T1 cells (4T1 cancer cells; macrophages pretreated 24 hrs with 1 μM VT107, compared to T-cells alone): significantly increased | proliferation of DCIS / breast cancer cells in vitro (DCIS cells): no significant change | proliferation of DCIS / breast cancer cells in vitro (DCIS cells; listed as iTEAD): no effect | IL6 level in the cell mix [1, 3]: significantly increased | IL12 level in the cell mix [1, 3]: significantly increased | IL4 in T-cells [1, 4]: slightly increased | IL12 or IL6 levels in macrophages or T-cells alone [1, 4]: No significant change | migration of breast cancer cells in vitro [2]: reduced | 3D spheroid collective invasion ([2]; vs control): reduced
